According to the supplement of paper PMC10307832:

How the values were obtained:
Assay in all cases: relative viability (nuclei count vs DMSO), 5 days (fraction); higher = more cells survive
[1] = compound: C=CCn1c(=O)c2cnc(Nc3ccc(N4CCN(C)CC4)cc3)nc2n1-c1cccc(C(C)(C)O)n1 [Adavosertib] + CC(=O)c1c(C)c2cnc(Nc3ccc(N4CCNCC4)cn3)nc2n(C2CCCC2)c1=O [Palbociclib] (partner 0.5 µM)
How it was run: (§1)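 Each reported value is a median over duplicate plates. It expresses relative viability: treated-well nuclei count divided by vehicle-well nuclei count. Lung cancer cell lines in 1536-well plates were dosed by pin tool a day after seeding, alone with one drug or with a fixed anchor-drug dose plus five library-drug doses (not always all listed) in √10 steps, and nuclei were counted after 5 days.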

Nelarabine + Pictilisib = compound: COc1nc(N)nc2c1ncn2[C@@H]1O[C@H](CO)[C@@H](O)[C@@H]1O [Nelarabine] + CS(=O)(=O)N1CCN(Cc2cc3nc(-c4cccc5[nH]ncc45)nc(N4CCOCC4)c3s2)CC1 [Pictilisib] (partner 1 µM)
How it was run: as §1

Nelarabine + Pemetrexed = compound: COc1nc(N)nc2c1ncn2[C@@H]1O[C@H](CO)[C@@H](O)[C@@H]1O [Nelarabine] + Nc1nc2[nH]cc(CCc3ccc(C(=O)N[C@@H](CCC(=O)O)C(=O)O)cc3)c2c(=O)[nH]1 [Pemetrexed] (partner 0.2 µM)
How it was run: as §1

Adavosertib + Alpelisib = compound: C=CCn1c(=O)c2cnc(Nc3ccc(N4CCN(C)CC4)cc3)nc2n1-c1cccc(C(C)(C)O)n1 [Adavosertib] + Cc1nc(NC(=O)N2CCC[C@H]2C(N)=O)sc1-c1ccnc(C(C)(C)C(F)(F)F)c1 [Alpelisib] (partner 2 µM)
How it was run: as §1

Cell Line	relative viability ([1]; first compound 0.01 µM)	relative viability ([1]; first compound 0.03162 µM)	relative viability ([1]; first compound 0.1 µM)	relative viability ([1]; first compound 0.3162 µM)	relative viability (Nelarabine + Pictilisib; first compound 0.01 µM)	relative viability (Nelarabine + Pictilisib; first compound 0.03162 µM)	relative viability (Nelarabine + Pictilisib; first compound 0.1 µM)	relative viability (Nelarabine + Pictilisib; first compound 0.3162 µM)	relative viability (Nelarabine + Pictilisib; first compound 1 µM)	relative viability (Nelarabine + Pemetrexed; first compound 0.01 µM)	relative viability (Nelarabine + Pemetrexed; first compound 0.03162 µM)	relative viability (Nelarabine + Pemetrexed; first compound 0.1 µM)	relative viability (Nelarabine + Pemetrexed; first compound 0.3162 µM)	relative viability (Nelarabine + Pemetrexed; first compound 1 µM)	relative viability (Adavosertib + Alpelisib; first compound 0.01 µM)	relative viability (Adavosertib + Alpelisib; first compound 0.03162 µM)	relative viability (Adavosertib + Alpelisib; first compound 0.1 µM)	relative viability (Adavosertib + Alpelisib; first compound 0.3162 µM)
NCI-H2087	0.218	0.217	0.263	0.243	0.961	0.975	0.99	1.22	1.02	0.782	0.67	0.723	0.7	0.717	1.11	1.07	1.2	0.944
NCI-H2405		0.492	0.555	0.58	0.532	0.464	0.382	0.49	0.492	0.939	1.11	1.09	1.16	1.01	0.765	0.878	0.874	0.764
NCI-H1915	0.535	0.564	0.645	0.644	1.08	0.939	1.04	0.959	1.01	0.676	0.539	0.561	0.658	0.699	1.07	1.07	1.13	1.15
NCI-H1395	0.616	0.657	0.591	0.674	0.729	0.646	0.659	0.694	0.618	0.818	0.755	1.21	0.773	0.707	0.975	1.1	1.03	0.732
LOU-NH91	0.609	0.497	0.548	0.531	0.515	0.464	0.487	0.527	0.54	0.385	0.35	0.442	0.329	0.381	0.704	0.758	0.731	0.66
SW 1573	0.364	0.42	0.401	0.392	0.68	0.53	0.535	0.485	0.639	0.957	0.908	1.01	0.838	0.877	0.724	0.786	0.751	0.761
NCI-H23	0.503	0.53	0.419	0.219	0.494	0.499	0.528	0.459	0.51	1.04	0.729	0.771	0.71	0.666	0.639	0.775	0.591	0.346
NCI-H1993	0.656	0.701	0.725	0.934	0.718	0.81	0.894	0.779	0.899	0.632	0.477	0.598	0.64	0.67	0.733	0.65	0.723	0.68
HARA	0.21	0.271	0.349	0.265	0.457	0.346	0.336	0.452	0.354	0.233	0.28	0.225	0.288	0.226	0.746	0.858	0.814	0.63
